Results as given in patent US20260234125A1, “CYCLIC AMINE DERIVATIVE, AND COMPOSITION AND USE THEREOF” (SHANGHAI JINGXIN BIOMEDICAL CO., LTD., priority 2023, published 2026).

Tests used:
[1] = test system: Salmonella typhimurium TA98; experiment: Salmonella typhimurium reverse mutation test, TA98; format: cell-based; design: key: + indicates a positive mutagenic result; − indicates a negative mutagenic result
Method: (§1) The revived strains or a single colony from the master plate were inoculated into the broth, and cultured in a thermostat gas bath vibrator at 100 to 120 rpm and 37±1° C. for 10 to 16 hours, marked and stored for later use. The bottom agar medium (containing an appropriate amount of agar, Vogel-Bonner buffer, 20% glucose solution and 20% magnesium sulfate solution) was poured into a six-well plate, approximately […] into each well, and allowed to cool and solidify naturally, marked each well and stored for later use.
(§2) Three wells were set up in each group for parallel experiments. The top agar medium was sterilized under high pressure and kept warm at about 65° C. In each test tube, 0.1 mL of negative control (DMSO) or positive control or test sample, 0.1 mL of bacterial solution suspension, 0.5 mL of phosphate buffer (0.2M PBS) (−S9) or 0.5 mL of S9 mixed solution (+S9) and 2.5 mL top culture medium were added, after vortex mixing, and then quickly and evenly spread on the culture dish which was already spreaded with the bottom agar medium. After natural cooling and solidification, the culture dish was inverted and placed in a 37° C. incubator for 48 to 72 hours. After culturing for 48 to 72 hours, the culture dish was taken out, and the number of revertant colonies in each well was counted, the growth background was observed under a microscope to determine whether there was antibacterial or bactericidal activity, and the experimental results were recorded.

[2] = Bioavailability determination in cynomolgus monkeys; format: in vivo; settings: cynomolgus monkey, plasma, 1 mg/kg intravenous and 7.5 mg/kg oral gavage, read-out: bioavailability F
Method: • 1. Experimental purpose: The purpose of this test is to test the bioavailability of the compound in cynomolgus monkeys • 2. Experimental methods: The cynomolgus monkeys were housed with a standard light cycle (12 hours light/12 hours dark), at a room temperature of 18-26° C. and a relative humidity of 40-70%, with free access to water and normal diet. Five days prior to the study, the cynomolgus monkeys were randomly assigned to an intravenous administration group and an oral administration group (n=2/group) on their body weight for the study. The administration volume was calculated according to the body weight of the animals on the day of administration, and the administration volume was 2 mL/kg, the single intravenous administration was performed at a dose of 1 mg/kg, and the solvent was 5% DMSO, 5% Solutol, and 90% Saline. Blood was collected from the forelimb vein or other suitable veins at 0.083 h, 0.25 h, 0.5 h, 1 h, 2 h, 4 h, 6 h, 8 h, 12 h, 24 h, 48 h and 72 h after administration. The administration volume was calculated according to the weight of the animals on the day of administration, and the administration volume was 5 mL/kg, the single oral gavage administration was performed at a dose of 7.5 mg/kg, and the solvent was 1% HEC and 0.25% Tween 80 in Water. […]

[3] = test system: Salmonella typhimurium TA1537; experiment: Salmonella typhimurium reverse mutation test, TA1537; format: cell-based; design: key: + indicates a positive mutagenic result; − indicates a negative mutagenic result
Method: as §1, §2

[4] = test system: Salmonella typhimurium TA102; experiment: Salmonella typhimurium reverse mutation test, TA102; format: cell-based; design: key: + indicates a positive mutagenic result; − indicates a negative mutagenic result
Method: as §1, §2

[5] = test system: Salmonella typhimurium TA1535; experiment: Salmonella typhimurium reverse mutation test, TA1535; format: cell-based; design: key: + indicates a positive mutagenic result; − indicates a negative mutagenic result
Method: as §1, §2

[6] = test system: Salmonella typhimurium TA100; experiment: Salmonella typhimurium reverse mutation test, TA100; format: cell-based; design: key: + indicates a positive mutagenic result; − indicates a negative mutagenic result
Method: as §1, §2

SMILES: O=C(O)[C@@H](Cc1cccc(CN(Cc2cccc(C[C@H](C(=O)O)[C@H]3CCNC3)c2)C(=O)c2cccc(C[C@H](C(=O)O)[C@H]3CCNC3)c2)c1)[C@H]1CCNC1 [Example 5]
- mutagenicity ([1]; TA98, +S9, 62 μg/dish): −
- mutagenicity ([1]; TA98, +S9, 185 μg/dish): −
- mutagenicity ([1]; TA98, +S9, 556 μg/dish): −
- mutagenicity ([1]; TA98, +S9, 1667 μg/dish): −
- mutagenicity ([1]; TA98, +S9, 5000 μg/dish): −
- mutagenicity ([1]; TA98, −S9, 62 μg/dish): −
- mutagenicity ([1]; TA98, −S9, 185 μg/dish): −
- mutagenicity ([1]; TA98, −S9, 556 μg/dish): −
- mutagenicity ([1]; TA98, −S9, 1667 μg/dish): −
- mutagenicity ([1]; TA98, −S9, 5000 μg/dish): −
- bioavailability [2]: 16.8%
- mutagenicity ([3]; TA1537, +S9, 62 μg/dish): −
- mutagenicity ([3]; TA1537, +S9, 185 μg/dish): −
- mutagenicity ([3]; TA1537, +S9, 556 μg/dish): −
- mutagenicity ([3]; TA1537, +S9, 1667 μg/dish): −
- mutagenicity ([3]; TA1537, +S9, 5000 μg/dish): −
- mutagenicity ([3]; TA1537, −S9, 62 μg/dish): −
- mutagenicity ([3]; TA1537, −S9, 185 μg/dish): −
- mutagenicity ([3]; TA1537, −S9, 556 μg/dish): −
- mutagenicity ([3]; TA1537, −S9, 1667 μg/dish): −
- mutagenicity ([3]; TA1537, −S9, 5000 μg/dish): −
- mutagenicity ([4]; TA102, +S9, 62 μg/dish): −
- mutagenicity ([4]; TA102, +S9, 185 μg/dish): −
- mutagenicity ([4]; TA102, +S9, 556 μg/dish): −
- mutagenicity ([4]; TA102, +S9, 1667 μg/dish): −
- mutagenicity ([4]; TA102, +S9, 5000 μg/dish): −
- mutagenicity ([4]; TA102, −S9, 62 μg/dish): −
- mutagenicity ([4]; TA102, −S9, 185 μg/dish): −
- mutagenicity ([4]; TA102, −S9, 556 μg/dish): −
- mutagenicity ([4]; TA102, −S9, 1667 μg/dish): −
- mutagenicity ([4]; TA102, −S9, 5000 μg/dish): −
- mutagenicity ([5]; TA1535, +S9, 62 μg/dish): −
- mutagenicity ([5]; TA1535, +S9, 185 μg/dish): −
- mutagenicity ([5]; TA1535, +S9, 556 μg/dish): −
- mutagenicity ([5]; TA1535, +S9, 1667 μg/dish): −
- mutagenicity ([5]; TA1535, +S9, 5000 μg/dish): −
- mutagenicity ([5]; TA1535, −S9, 62 μg/dish): −
- mutagenicity ([5]; TA1535, −S9, 185 μg/dish): −
- mutagenicity ([5]; TA1535, −S9, 556 μg/dish): −
- mutagenicity ([5]; TA1535, −S9, 1667 μg/dish): −
- mutagenicity ([5]; TA1535, −S9, 5000 μg/dish): −
- mutagenicity ([6]; TA100, +S9, 62 μg/dish): −
- mutagenicity ([6]; TA100, +S9, 185 μg/dish): −
- mutagenicity ([6]; TA100, +S9, 556 μg/dish): −
- mutagenicity ([6]; TA100, +S9, 1667 μg/dish): −
- mutagenicity ([6]; TA100, +S9, 5000 μg/dish): −
- mutagenicity ([6]; TA100, −S9, 62 μg/dish): −
- mutagenicity ([6]; TA100, −S9, 185 μg/dish): −
- mutagenicity ([6]; TA100, −S9, 556 μg/dish): −
- mutagenicity ([6]; TA100, −S9, 1667 μg/dish): −
- mutagenicity ([6]; TA100, −S9, 5000 μg/dish): −

SMILES: O=C(O)[C@@H](Cc1cccc(CN(Cc2cccc(C[C@H](C(=O)O)[C@H]3CCNC3)c2)Cc2cccc(C[C@H](C(=O)O)[C@H]3CCNC3)c2)c1)[C@H]1CCNC1 [Comparative Example 1, reference compound]
- mutagenicity ([1]; TA98, +S9, 62 μg/dish): −
- mutagenicity ([1]; TA98, +S9, 185 μg/dish): −
- mutagenicity ([1]; TA98, +S9, 556 μg/dish): +
- mutagenicity ([1]; TA98, +S9, 1667 μg/dish): +
- mutagenicity ([1]; TA98, +S9, 5000 μg/dish): +
- mutagenicity ([1]; TA98, −S9, 62 μg/dish): −
- mutagenicity ([1]; TA98, −S9, 185 μg/dish): +
- mutagenicity ([1]; TA98, −S9, 556 μg/dish): +
- mutagenicity ([1]; TA98, −S9, 1667 μg/dish): +
- mutagenicity ([1]; TA98, −S9, 5000 μg/dish): +
- bioavailability [2]: 10.2%
- mutagenicity ([3]; TA1537, +S9, 62 μg/dish): −
- mutagenicity ([3]; TA1537, +S9, 185 μg/dish): −
- mutagenicity ([3]; TA1537, +S9, 556 μg/dish): −
- mutagenicity ([3]; TA1537, +S9, 1667 μg/dish): −
- mutagenicity ([3]; TA1537, +S9, 5000 μg/dish): −
- mutagenicity ([3]; TA1537, −S9, 62 μg/dish): −
- mutagenicity ([3]; TA1537, −S9, 185 μg/dish): −
- mutagenicity ([3]; TA1537, −S9, 556 μg/dish): −
- mutagenicity ([3]; TA1537, −S9, 1667 μg/dish): −
- mutagenicity ([3]; TA1537, −S9, 5000 μg/dish): −
- mutagenicity ([4]; TA102, +S9, 62 μg/dish): −
- mutagenicity ([4]; TA102, +S9, 185 μg/dish): −
- mutagenicity ([4]; TA102, +S9, 556 μg/dish): −
- mutagenicity ([4]; TA102, +S9, 1667 μg/dish): −
- mutagenicity ([4]; TA102, +S9, 5000 μg/dish): −
- mutagenicity ([4]; TA102, −S9, 62 μg/dish): −
- mutagenicity ([4]; TA102, −S9, 185 μg/dish): −
- mutagenicity ([4]; TA102, −S9, 556 μg/dish): −
- mutagenicity ([4]; TA102, −S9, 1667 μg/dish): −
- mutagenicity ([4]; TA102, −S9, 5000 μg/dish): −
- mutagenicity ([5]; TA1535, +S9, 62 μg/dish): −
- mutagenicity ([5]; TA1535, +S9, 185 μg/dish): −
- mutagenicity ([5]; TA1535, +S9, 556 μg/dish): −
- mutagenicity ([5]; TA1535, +S9, 1667 μg/dish): −
- mutagenicity ([5]; TA1535, +S9, 5000 μg/dish): −
- mutagenicity ([5]; TA1535, −S9, 62 μg/dish): −
- mutagenicity ([5]; TA1535, −S9, 185 μg/dish): −
- mutagenicity ([5]; TA1535, −S9, 556 μg/dish): −
- mutagenicity ([5]; TA1535, −S9, 1667 μg/dish): −
- mutagenicity ([5]; TA1535, −S9, 5000 μg/dish): −
- mutagenicity ([6]; TA100, +S9, 62 μg/dish): −
- mutagenicity ([6]; TA100, +S9, 185 μg/dish): −
- mutagenicity ([6]; TA100, +S9, 556 μg/dish): −
- mutagenicity ([6]; TA100, +S9, 1667 μg/dish): −
- mutagenicity ([6]; TA100, +S9, 5000 μg/dish): −
- mutagenicity ([6]; TA100, −S9, 62 μg/dish): −
- mutagenicity ([6]; TA100, −S9, 185 μg/dish): −
- mutagenicity ([6]; TA100, −S9, 556 μg/dish): −
- mutagenicity ([6]; TA100, −S9, 1667 μg/dish): −
- mutagenicity ([6]; TA100, −S9, 5000 μg/dish): −
